Results reported in patent publication US8623864B2, “Thioridazine and derivatives thereof for reversing anti-microbial drug-resistance” (NOA Sic Aps, priority 2003, dated 2014).
Read-outs that look alike come from different tables or passages of the source.

How the values were obtained:
[1] = system: human Enterococcus faecalis; assay: Microdilution checkerboard, antibiotic plus resistance modifier; format: cell-based; conditions: Enterococcus faecalis, drug alone
Enterococcus faecalis = assay: as above; format: cell-based
a known bacterial strain = assay: MIC of erythromycin and thioridazine, alone and combined; format: cell-based
tumour cell lines = conditions: Akiyama et al. 1986; cited from earlier work
[2] = system: Mycobacterium tuberculosis; conditions: Ordway et al. 2003; cited from earlier work
[3] = system: a common bacterial strain; assay: MIC of oxacillin alone and combined with thioridazine; format: cell-based; conditions: read-out: effective MIC
[4] = strain A, each drug in the combination VAN + PCP
[5] = strain A, each drug in the combination VAN + THIO
[6] = strain B, each drug in the combination VAN + PCP
[7] = strain B, each drug in the combination VAN + THIO
[8] = strain C, each drug in the combination VAN + PCP
[9] = strain C, each drug in the combination VAN + THIO
[10] = strain D, each drug in the combination VAN + PCP
[11] = strain D, each drug in the combination VAN + THIO
[12] = strain E, each drug in the combination VAN + PCP
[13] = strain E, each drug in the combination VAN + THIO
[14] = strain A, read-out: MIC of single drug (microdilution checkerboard)
[15] = strain B, read-out: MIC of single drug (microdilution checkerboard)
[16] = strain C, read-out: MIC of single drug (microdilution checkerboard)
[17] = strain D, read-out: MIC of single drug (microdilution checkerboard)
[18] = strain E, read-out: MIC of single drug (microdilution checkerboard)
[19] = strain A, each drug in the combination AMP + PCP
[20] = strain A, each drug in the combination AMP + THIO
[21] = strain B, each drug in the combination AMP + PCP
[22] = strain B, each drug in the combination AMP + THIO
[23] = strain C, each drug in the combination AMP + PCP
[24] = strain C, each drug in the combination AMP + THIO
[25] = strain D, each drug in the combination AMP + PCP
[26] = strain D, each drug in the combination AMP + THIO
[27] = strain E, each drug in the combination AMP + PCP
[28] = strain E, each drug in the combination AMP + THIO

| Compound | Combination of drugs (MIC) (Enterococcus faecalis; [4]) [µg/mL] | Combination of drugs (MIC) (Enterococcus faecalis; [5]) [µg/mL] | Combination of drugs (MIC) (Enterococcus faecalis; [6]) [µg/mL] | Combination of drugs (MIC) (Enterococcus faecalis; [7]) [µg/mL] | Combination of drugs (MIC) (Enterococcus faecalis; [8]) [µg/mL] | Combination of drugs (MIC) (Enterococcus faecalis; [9]) [µg/mL] | Combination of drugs (MIC) (Enterococcus faecalis; [10]) [µg/mL] | Combination of drugs (MIC) (Enterococcus faecalis; [11]) [µg/mL] | Combination of drugs (MIC) (Enterococcus faecalis; [12]) [µg/mL] | Combination of drugs (MIC) (Enterococcus faecalis; [13]) [µg/mL] | MIC (a known bacterial strain) [µg/mL] | MIC [1, 14] [µg/mL] | MIC [1, 15] [µg/mL] | MIC [1, 16] [µg/mL] | MIC [1, 17] [µg/mL] | MIC [1, 18] [µg/mL] | Combination of drugs (MIC) (Enterococcus faecalis; [19]) [µg/mL] | Combination of drugs (MIC) (Enterococcus faecalis; [20]) [µg/mL] | Combination of drugs (MIC) (Enterococcus faecalis; [21]) [µg/mL] | Combination of drugs (MIC) (Enterococcus faecalis; [22]) [µg/mL] | also measured |
| --- | --- | --- | --- | --- | --- | --- | --- | --- | --- | --- | --- | --- | --- | --- | --- | --- | --- | --- | --- | --- | --- |
| CN[C@H](CC(C)C)C(=O)N[C@H]1C(=O)N[C@@H](CC(N)=O)C(=O)N[C@H]2C(=O)N[C@H]3C(=O)N[C@H](C(=O)N[C@H](C(=O)O)c4cc(O)cc(O)c4-c4cc3ccc4O)[C@H](O)c3ccc(c(Cl)c3)Oc3cc2cc(c3O[C@@H]2O[C@H](CO)[C@@H](O)[C@H](O)[C@H]2O[C@H]2C[C@](C)(N)[C@H](O)[C@H](C)O2)Oc2ccc(cc2Cl)[C@H]1O [vancomycin] | 48 | 6 | 1 | 2 | 64 | 64 | 32 | 32 | 0.5 | 1 |  |  |  |  |  |  |  |  |  |  | MIC ([1]; read-out: MIC of single drug (microdilution checkerboard), strain A): 192 µg/mL; MIC ([1]; read-out: MIC of single drug (microdilution checkerboard), strain B): 4 µg/mL; MIC ([1]; read-out: MIC of single drug (microdilution checkerboard), strain C): 128 µg/mL; MIC ([1]; read-out: MIC of single drug (microdilution checkerboard), strain D): 500 µg/mL; MIC ([1]; read-out: MIC of single drug (microdilution checkerboard), strain E): 2 µg/mL |
| CC[C@H]1OC(=O)[C@H](C)[C@@H](O[C@H]2C[C@@](C)(OC)[C@@H](O)[C@H](C)O2)[C@H](C)[C@@H](O[C@@H]2O[C@H](C)C[C@H](N(C)C)[C@H]2O)[C@](C)(O)C[C@@H](C)C(=O)[C@H](C)[C@@H](O)[C@]1(C)O [Erythromycin] |  |  |  |  |  |  |  |  |  |  | 24 |  |  |  |  |  |  |  |  |  | Erythromycin concentration needed in combination (a known bacterial strain; combined with 12 μg/ml of the levorotatory isomer of thioridazine): 1 µg/mL; Erythromycin concentration needed in combination (a known bacterial strain; combined with 12 μg/ml of thioridazine in racemic form): less than 8 μg/ml |
| CC1(C)S[C@@H]2[C@H](NC(=O)[C@H](N)c3ccccc3)C(=O)N2[C@H]1C(=O)O [ampicillin] |  |  |  |  |  |  |  |  |  |  |  | 32 | 2 | 16 | 1 | 128 | 32 | 1 | 0.5 | 0.5 | Combination of drugs (MIC) (Enterococcus faecalis; [23]): 8 µg/mL; Combination of drugs (MIC) (Enterococcus faecalis; [24]): AMP (4) + THIO (4) μg/ml; Combination of drugs (MIC) (Enterococcus faecalis; [25]): 0.25 µg/mL; Combination of drugs (MIC) (Enterococcus faecalis; [26]): 0.25 µg/mL; Combination of drugs (MIC) (Enterococcus faecalis; [27]): 64 µg/mL; Combination of drugs (MIC) (Enterococcus faecalis; [28]): 16 µg/mL |
| CSc1ccc2c(c1)N(CCC1CCCCN1C)c1ccccc1S2 (racemic) [THIO, thioridazine] |  | 8 |  | 32 |  | 4 |  | 8 |  | 2 | 16 | 32 | 32 | 32 | 32 | 32 |  | 16 |  | 8 | Reversal of resistance to antineoplastic agents (tumour cell lines): effective in reversing resistance to a variety of antineoplastic agents; Combination of drugs (MIC) (Enterococcus faecalis; [24]): AMP (4) + THIO (4) μg/ml; Combination of drugs (MIC) (Enterococcus faecalis; [26]): 4 µg/mL; Combination of drugs (MIC) (Enterococcus faecalis; [28]): 8 µg/mL; Ability to kill bacteria in vitro [2]: kill Mycobacterium tuberculosis in vitro |
| CN1CCN(CCCN2c3ccccc3Sc3ccc(Cl)cc32)CC1 [PCP, prochlorperazine] | 16 |  | 16 |  | 8 |  | 8 |  | 8 |  |  | 32 | 64 | 32 | 32 | 32 | 0.25 |  | 16 |  | Combination of drugs (MIC) (Enterococcus faecalis; [23]): 0.5 µg/mL; Combination of drugs (MIC) (Enterococcus faecalis; [25]): 8 µg/mL; Combination of drugs (MIC) (Enterococcus faecalis; [27]): 16 µg/mL |
| Cc1onc(-c2ccccc2)c1C(=O)N[C@@H]1C(=O)N2[C@@H]1SC(C)(C)[C@@H]2C(=O)O [oxacillin] |  |  |  |  |  |  |  |  |  |  |  |  |  |  |  |  |  |  |  |  | MIC ([3]; combined with 8 μg/ml of thioridazine): 1 µg/mL; MIC ([3]; oxacillin alone, common bacterial strain): > 256 µg/mL |
